Assay results published in ChEMBL document CHEMBL3232855, “The discovery of N-((2H-tetrazol-5-yl)methyl)-4-((R)-1-((5r,8R)-8-(tert-butyl)-3-(3,5-dichlorophenyl)-2-oxo-1,4-diazaspiro[4.5]dec-3-en-1-yl)-4,4-dimethylpentyl)benzamide (SCH 900822): a potent and selective glucagon receptor antagonist” (J Med Chem, 2014).

Columns and labels:
[1] = target: T1, Glucagon receptor (Homo sapiens, UniProt P47871); assay: biochemical; format: cell-based, CHO
Description: Displacement of [125I]-glucagon from recombinant human GCGR expressed in CHO cells after 60 mins by scintillation counting analysis

[2] = target: Glucagon-like peptide 1 receptor (Homo sapiens, UniProt P43220); assay: Antagonist activity at human GLP-1R expressed in CHO cells assessed as inhibition of GLP-1-stimulated cAMP production preincubated for 30 mins followed by GLP-1 induction measured after 45 mins by LANCE assay; format: functional, cell-based
[3] = target: T1, Glucagon receptor; assay: Antagonist activity at human GCGR expressed in CHO cells assessed as inhibition of glucagon-stimulated cAMP production preincubated for 30 mins followed by glucagon induction measured after 45 mins by LANCE assay; format: functional, cell-based

T1 sequence (P47871 whole entry): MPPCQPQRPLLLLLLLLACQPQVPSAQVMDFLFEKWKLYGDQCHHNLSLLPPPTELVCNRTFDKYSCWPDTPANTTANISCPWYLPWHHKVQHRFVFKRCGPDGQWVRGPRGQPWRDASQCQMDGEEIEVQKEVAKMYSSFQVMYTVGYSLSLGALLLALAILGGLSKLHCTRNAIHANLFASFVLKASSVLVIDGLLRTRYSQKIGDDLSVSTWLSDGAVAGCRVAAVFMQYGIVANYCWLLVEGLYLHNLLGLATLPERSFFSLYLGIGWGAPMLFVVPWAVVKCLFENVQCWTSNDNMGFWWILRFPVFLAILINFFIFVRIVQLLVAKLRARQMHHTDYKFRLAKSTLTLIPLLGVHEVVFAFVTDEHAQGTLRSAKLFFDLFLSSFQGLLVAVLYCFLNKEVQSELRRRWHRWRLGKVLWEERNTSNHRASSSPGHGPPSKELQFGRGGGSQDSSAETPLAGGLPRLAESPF
Chain of Glucagon-like peptide 1 receptor (P43220 whole entry): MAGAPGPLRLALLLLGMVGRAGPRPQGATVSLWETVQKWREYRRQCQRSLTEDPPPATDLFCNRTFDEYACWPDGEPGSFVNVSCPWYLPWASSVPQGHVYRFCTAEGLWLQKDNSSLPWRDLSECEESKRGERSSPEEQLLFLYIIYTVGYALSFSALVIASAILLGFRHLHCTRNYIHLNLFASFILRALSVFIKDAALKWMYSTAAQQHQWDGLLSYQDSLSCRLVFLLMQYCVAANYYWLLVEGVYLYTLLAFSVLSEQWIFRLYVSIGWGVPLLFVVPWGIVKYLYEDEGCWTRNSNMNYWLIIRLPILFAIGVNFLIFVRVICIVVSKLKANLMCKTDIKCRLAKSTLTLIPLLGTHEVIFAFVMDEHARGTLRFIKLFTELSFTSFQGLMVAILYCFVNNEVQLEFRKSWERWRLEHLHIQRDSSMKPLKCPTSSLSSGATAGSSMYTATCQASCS

SMILES | IC50 [1] [µM] | IC50 [2] [µM] | IC50 [3] [µM]
CC(C)(C)CC[C@H](c1ccc(C(=O)NCc2nn[nH]n2)cc1)N1C(=O)C(c2cc(Cl)cc(Cl)c2)=NC12CCCCC2 | 0.195 | > 10 | 0.51
CC(C)(C)CC[C@H](c1ccc(C(=O)NCCCC(=O)O)cc1)N1C(=O)C(c2cc(Cl)cc(Cl)c2)=N[C@]12CC[C@@H](C(C)(C)C)CC2 | 0.27 | > 10 | 0.35
CC(C)(C)CC[C@H](c1ccc(C(=O)NCc2nn[nH]n2)cc1)N1C(=O)C(c2cc(Cl)cc(Cl)c2)=N[C@]12CC[C@@H](C)CC2 | 0.036 | > 10 | 0.26
C[C@@H](c1ccc(C(=O)NCCC(=O)O)cc1)N1C(=O)C(c2cc(Cl)cc(Cl)c2)=N[C@]12CC[C@@H](C(C)(C)C)CC2 | – | > 10 | 5.1
C[C@@H](CC(=O)O)NC(=O)c1ccc([C@@H](CCC(C)(C)C)N2C(=O)C(c3cc(Cl)cc(Cl)c3)=N[C@]23CC[C@@H](C(C)(C)C)CC3)cc1 | – | > 10 | > 10
COc1cccc(C2=N[C@]3(CC[C@@H](C(C)(C)C)CC3)N([C@H](CCC(C)(C)C)c3ccc(C(=O)NCc4nn[nH]n4)cc3)C2=O)c1 | 0.015 | > 10 | 0.23
CC(C)[C@H](c1ccc(C(=O)NCc2nn[nH]n2)cc1)N1C(=O)C(c2cc(Cl)cc(Cl)c2)=N[C@]12CC[C@@H](C(C)(C)C)CC2 | – | – | 2.2
CC(C)(C)CC[C@H](c1ccc(C(=O)NCc2nn[nH]n2)cc1)N1C(=O)C(c2ncccc2C(F)(F)F)=N[C@]12CC[C@@H](C(C)(C)C)CC2 | – | > 10 | 1.6
CC[C@H]1CC[C@]2(CC1)N=C(c1cc(Cl)cc(Cl)c1)C(=O)N2[C@H](CCC(C)(C)C)c1ccc(C(=O)NCc2nn[nH]n2)cc1 | 0.044 | > 10 | 0.066
CC(C)(C)CC[C@H](c1ccc(C(=O)NCc2nn[nH]n2)cc1)N1C(=O)C(c2cc(Cl)cc(Cl)c2)=NC1(C)C | – | > 10 | –
COc1ccc(C2=N[C@]3(CC[C@@H](C(C)(C)C)CC3)N([C@H](CCC(C)(C)C)c3ccc(C(=O)NCc4nn[nH]n4)cc3)C2=O)cc1 | 0.026 | > 10 | 0.36

Continued, values first:

IC50 [1] [µM] | IC50 [2] [µM] | IC50 [3] [µM] | SMILES
– | > 10 | 8.5 | CC(C)(C)CC[C@H](c1ccc(C(=O)NCCS(=O)(=O)O)cc1)N1C(=O)C(c2cc(Cl)cc(Cl)c2)=N[C@]12CC[C@@H](C(C)(C)C)CC2
– | > 10 | 2.7 | CC(C)(C)CC[C@H](c1ccc(C(=O)NCC(=O)O)cc1)N1C(=O)C(c2cc(Cl)cc(Cl)c2)=N[C@]12CC[C@@H](C(C)(C)C)CC2
0.6 | 0.14 | 0.85 | CC(C)(C)CC[C@H](c1ccc(C(=O)Nc2nnn[nH]2)cc1)N1C(=O)C(c2cc(Cl)cc(Cl)c2)=N[C@]12CC[C@@H](C(C)(C)C)CC2
0.065 | > 10 | 0.89 | CC(C)(C)CC[C@H](c1ccc(C(=O)NCCC2=NNNN2)cc1)N1C(=O)C(c2cc(Cl)cc(Cl)c2)=N[C@]12CC[C@@H](C(C)(C)C)CC2
– | > 10 | > 10 | C[C@H](NC(=O)c1ccc([C@@H](CCC(C)(C)C)N2C(=O)C(c3cc(Cl)cc(Cl)c3)=N[C@]23CC[C@@H](C(C)(C)C)CC3)cc1)c1nnn[nH]1
– | > 10 | 4.5 | C[C@@H](NC(=O)c1ccc([C@@H](CCC(C)(C)C)N2C(=O)C(c3cc(Cl)cc(Cl)c3)=N[C@]23CC[C@@H](C(C)(C)C)CC3)cc1)c1nnn[nH]1
0.149 | > 10 | 0.4 | CC(C)(C)CC[C@H](c1ccc(C(=O)NC[C@@H](O)C(=O)O)cc1)N1C(=O)C(c2cc(Cl)cc(Cl)c2)=N[C@]12CC[C@@H](C(C)(C)C)CC2 (mixture of isomers)
0.086 | > 10 | 0.37 | CC(C)(C)CC[C@H](c1ccc(C(=O)NC[C@H](O)C(=O)O)cc1)N1C(=O)C(c2cc(Cl)cc(Cl)c2)=N[C@]12CC[C@@H](C(C)(C)C)CC2
